Patent US12636297B2, “Boronic acid derivatives and therapeutic uses thereof” (priority 2019, dated 2026)
Like-named read-outs stand apart in the source and are kept apart here.

Columns and labels:
P. aeruginosa = assay: Susceptibility testing of 262 P. aeruginosa strains with meropenem MIC >2 μg/mL; type: cell-based, Pseudomonas aeruginosa; conditions: Compound 1 at 8 μg/mL; for % of susceptible organisms at breakpoints: breakpoints ≤8 μg/mL meropenem and cefepime, ≤4 μg/mL ceftolozane, ≤16 μg/mL piperacillin
Protocol: (§1) In addition, 509 Carbapenem-Resistant Enterobacteriaceae were tested with meropenem, cefepime, and ceftolozane alone and in combination with Compound 1 at 8 μg/mL. Furthermore, 262 strains of P. aeruginosa with a meropenem MIC>2 μg/mL were tested with meropenem, ceftolozane, cefepime and piperacillin alone and in combination with Compound 1 at 8 μg/mL.
262 strains of P. aeruginosa having a meropenem MIC greater than 2 μg/mL were tested with meropenem, ceftolozane, cefepime and piperacillin alone and Compound 1 at 8 μg/mL.

[1] = tested on: Carbapenem-Resistant Enterobacteriaceae; assay: MIC distribution for 509 Carbapenem-Resistant Enterobacteriaceae (FIG. 2); type: cell-based; conditions: Compound 1 at 8 μg/mL
Protocol: as §1
The MIC distribution of combinations of Compound 1 with meropenem, cefepime and cetolozane alone, or with Compound 1 at 8 μg/mL for Carbapenem-Resistant Enterobacteriaceae were tested.

[2] = tested on: carbapenem resistant Enterobacteriaceae (CRE); assay: MIC of antibiotics with Compound 1 against panel of 510 CRE clinical isolates; type: cell-based; conditions: for MIC50 / MIC90: antibiotic alone
Protocol: In this example, the antibiotics meropenem, cefepime, ceftolozane and cefiderocol, were tested in combination with Compound 1 at 4 μg/ml and 8 μg/ml against a panel of 510 clinical isolates representing various types of carbapenem resistant Enterobacteriaceae (CRE). Cefiderocol was tested at standard conditions, in […] media.

[3] = tested on: carbapenem resistant Acinetobacter baumannii; assay: MIC of antibiotics with Compound 1 against panel of 503 carbapenem resistant Acinetobacter baumannii clinical isolates; type: cell-based; conditions: for MIC50 / MIC90: carbapenem resistant Acinetobacter baumannii (N = 503), antibiotic alone
Protocol: In another experiment, various antibiotics, meropenem, cefepime, ceftolozane and cefiderocol, were tested in combination with Compound 1 at 4 μg/ml and 8 μg/ml against the panel of 503 clinical isolates of carbapenem resistant Acinetobacter baumannii. […] Cefiderocol was tested at standard conditions, in […] media.

[4] = tested on: carbapenem-resistant (CR) Acinetobacter baumannii (AB); assay: Broth microdilution MIC of β-lactams alone and with Compound 1 against carbapenem-resistant Acinetobacter baumannii clinical isolates; type: cell-based; conditions: for MIC: SUL alone; for % susceptible, [S]: breakpoints MER ≤8 μg/mL, TOL ≤4 μg/mL
Protocol: (§2) In this example the in vitro activity of Compound 1 was evaluated in combination with several β-lactams including sulbactam, meropenem, and ceftolozane against clinical isolates of carbapenem-resistant (CR) Acinetobacter baumannii (AB) and Pseudomonas aeruginosa (PA).

[5] = tested on: Pseudomonas aeruginosa (PA); assay: Broth microdilution MIC of β-lactams alone and with Compound 1 against Pseudomonas aeruginosa clinical isolates (representative and challenge panels); type: cell-based; conditions: for Minimum Inhibitory Concentration Distribution, % of isolates: representative panel of PA (N = 500), without Compound 1, AVI and TAZ at 4 μg/mL; for % susceptible, [S] / MIC50 / MIC90: Compound 1, AVI, and TAZ at fixed 4 μg/mL; for % susceptible, [S]: breakpoints MER ≤8, TOL ≤4, CAZ ≤8 μg/mL; for MIC50 / MIC90: Pseudomonas aeruginosa
Protocol: as §2

[6] = non-carbapenemase producing CRE, N = 45
[7] = CRAB (300), Compound 1 at fixed 4 μg/mL

## O=C(O)c1c(F)ccc2c1OB(O)[C@@H]1C[C@H]21 [Compound 1, 5-Fluoro-2-hydroxy-1a,7b-dihydro-1H-cyclopropa[c][1,2]benzoxaborinine-4-carboxylic acid]
P. aeruginosa; 262 strains with meropenem MIC >2 μg/mL
  Effect on proportion of susceptible P. aeruginosa: increased the proportion of susceptible organisms for all tested agents
[1]
  Effect on potency of meropenem, cefepime and ceftolozane (MIC distribution, FIG. 2): significantly increased potency of all tested antibiotics
[2]; Compound 1 at 4 and 8 μg/ml, 510 CRE clinical isolates
  Effect on MIC90 of antibiotics: shifted MIC90 of all antibiotics (except ceftolozane tested against metallo beta-lactamases, MBL) into susceptible range
[3]; Compound 1 at 4 and 8 μg/ml, 503 carbapenem resistant A. baumannii isolates
  Effect on potency of antibiotics: significantly enhances the potency of meropenem and cefiderocol

## CC(C)(O/N=C(\C(=O)N[C@@H]1C(=O)N2C(C(=O)[O-])=C(C[N+]3(CCNC(=O)c4ccc(O)c(O)c4Cl)CCCC3)CS[C@H]12)c1csc(N)n1)C(=O)O [DER, cefiderocol]
[2]; CRE KPC, N = 168
  MIC50: 2 mg/L
  MIC90: 32 mg/L
[2]; CRE MBL, N = 145
  MIC50: 8 mg/L
  MIC90: > 32 mg/L
[2]; CRE OXA, N = 152
  MIC50: 1 mg/L
  MIC90: 8 mg/L
[2]; [6]
  MIC50: 2 mg/L
  MIC90: 32 mg/L
[3]
  MIC50: 1 mg/L
  MIC90: 32 mg/L

## CO/N=C(\C(=O)N[C@@H]1C(=O)N2C(C(=O)[O-])=C(C[N+]3(C)CCCC3)CS[C@H]12)c1csc(N)n1 [FEP, cefepime]
P. aeruginosa; All strains (N = 262), meropenem MIC >2 μg/mL
  % of susceptible organisms at breakpoints: 20%
P. aeruginosa; MBL (N = 56)
  % of susceptible organisms at breakpoints: 4%
P. aeruginosa; No MBL (N = 206)
  % of susceptible organisms at breakpoints: 24%
[2]; CRE KPC, N = 168
  MIC50: 32 mg/L
  MIC90: > 32 mg/L
[2]; CRE MBL, N = 145
  MIC50: > 32 mg/L
  MIC90: > 32 mg/L
[2]; CRE OXA, N = 152
  MIC50: > 32 mg/L
  MIC90: > 32 mg/L
[2]; [6]
  MIC50: > 32 mg/L
  MIC90: > 32 mg/L
[3]
  MIC50: > 32 mg/L
  MIC90: > 32 mg/L

## CC1(C)[C@H](C(=O)O)N2C(=O)C[C@H]2S1(=O)=O [SUL, sulbactam]
[4]; Acinetobacter baumannii
  MIC50: > 32 mg/L
  MIC90: > 32 mg/L
[4]; Acinetobacter baumannii, read-out: Minimum Inhibitory Concentration, AB1144 (NDM-1)
  MIC: > 64 mg/L
[4]; Acinetobacter baumannii, read-out: Minimum Inhibitory Concentration, AB1192 (OXA-24, OXA-72)
  MIC: 32 mg/L
[4]; Acinetobacter baumannii, read-out: Minimum Inhibitory Concentration, AB1223 (OXA-72)
  MIC: 4 mg/L
[4]; Acinetobacter baumannii, read-out: Minimum Inhibitory Concentration, AB1227 (OXA-23)
  MIC: 64 mg/L
[4]; Acinetobacter baumannii, read-out: Minimum Inhibitory Concentration, AB1244 (OXA-23)
  MIC: 64 mg/L
[4]; Acinetobacter baumannii, read-out: Minimum Inhibitory Concentration, AB1291 (KPC-2)
  MIC: > 64 mg/L
[4]; Acinetobacter baumannii, read-out: Minimum Inhibitory Concentration, AB1307 (OXA-23)
  MIC: 32 mg/L
[4]; Acinetobacter baumannii, read-out: Minimum Inhibitory Concentration, AB1333 (OXA-239)
  MIC: 16 mg/L
[4]; Acinetobacter baumannii, read-out: Minimum Inhibitory Concentration, AB1358 (NDM-1)
  MIC: > 64 mg/L
[4]; Acinetobacter baumannii, read-out: Minimum Inhibitory Concentration, AB1359 (NDM-1)
  MIC: > 64 mg/L

## Cn1c(N)c(NC(=O)NCCN)c[n+]1CC1=C(C(=O)O)N2C(=O)[C@@H](NC(=O)/C(=N\OC(C)(C)C(=O)[O-])c3nsc(N)n3)[C@H]2SC1 [TOL, ceftolozane]
[4]; AB CP (100), defined carbapenemases, Compound 1 at fixed 4 μg/mL
  % susceptible, [S]: (0.0) %
[4]; Acinetobacter baumannii, AB CP (100), defined carbapenemases, Compound 1 at fixed 4 μg/mL, read-out: MIC50
  MIC50: > 32 mg/L
[4]; Acinetobacter baumannii, AB CP (100), defined carbapenemases, Compound 1 at fixed 4 μg/mL, read-out: MIC90
  MIC90: > 32 mg/L
[4]; [7]
  MIC50: >32/>32 μg/mL
  MIC90: >32/>32 μg/mL
  % susceptible, [S]: (1.3) %
[5]; MIC 0.125 μg/mL
  Minimum Inhibitory Concentration Distribution, % of isolates: 0.2%
[5]; MIC 0.25 μg/mL
  Minimum Inhibitory Concentration Distribution, % of isolates: 2.8%
[5]; MIC 0.5 μg/mL
  Minimum Inhibitory Concentration Distribution, % of isolates: 56.2%
[5]; MIC 1 μg/mL
  Minimum Inhibitory Concentration Distribution, % of isolates: 77.4%
[5]; MIC 2 μg/mL
  Minimum Inhibitory Concentration Distribution, % of isolates: 85.2%
[5]; MIC 4 μg/mL
  Minimum Inhibitory Concentration Distribution, % of isolates: 90.4%
[5]; MIC 8 μg/mL
  Minimum Inhibitory Concentration Distribution, % of isolates: 92.2%
[5]; MIC 16 μg/mL
  Minimum Inhibitory Concentration Distribution, % of isolates: 93.0%
[5]; MIC 32 μg/mL
  Minimum Inhibitory Concentration Distribution, % of isolates: 93.2%
[5]; MIC >32 μg/mL
  Minimum Inhibitory Concentration Distribution, % of isolates: 100.0%
[5]; MIC ≤0.06 μg/mL
  Minimum Inhibitory Concentration Distribution, % of isolates: 0.2%
[5]; PA (CAZ-AVI MIC >8) (37)
  % susceptible, [S]: (18.2) %
  MIC50: > 32 mg/L
  MIC90: > 32 mg/L
[5]; PA (Challenge, 652)
  % susceptible, [S]: (44.0) %
  MIC50: 16 mg/L
  MIC90: > 32 mg/L
[5]; PA (MER MIC >2) (612)
  % susceptible, [S]: (56.2) %
  MIC50: 4 mg/L
  MIC90: > 32 mg/L
[5]; PA (Representative, 500)
  % susceptible, [S]: (90.4) %
  MIC50: 0.5 mg/L
  MIC90: 4 mg/L
[5]; PA (TOL-TAZ MIC >4) (39)
  % susceptible, [S]: (3.3) %
  MIC50: > 32 mg/L
  MIC90: > 32 mg/L
[2]; CRE KPC, N = 168
  MIC50: > 32 mg/L
  MIC90: > 32 mg/L
[2]; CRE MBL, N = 145
  MIC50: > 32 mg/L
  MIC90: > 32 mg/L
[2]; CRE OXA, N = 152
  MIC50: > 32 mg/L
  MIC90: > 32 mg/L
[2]; [6]
  MIC50: > 32 mg/L
  MIC90: > 32 mg/L
[3]
  MIC50: > 32 mg/L
  MIC90: > 32 mg/L
